Drawing on US12590062B2, “PD-1/PD-L1 inhibitors” (Gilead Sciences, Inc., priority 2017, dated 2026), this text covers IC50 and EC50 for 16 molecules.

Assay [1] concerns the target PD-1/PD-L1 (Homo sapiens, UniProt Q9NZQ7). The assay is described as follows: PD-1/PD-L1 biochemical protein-protein interaction assay (ALPHA). The assay is classed as binding. The note with it: 0.3 nM His tagged PD-L1, 2.5 nM biotinylated Fc-PD-1, 60 minutes at 25° C., read-out: IC50 PD-L1-PD-1 Alpha IC50-mono PD-L1-fcP-D1. The procedure, abridged: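 His-PD-L1 ECD 0.3 nM + biotin-Fc-PD-1 2.5 nM (final), 25 mM Hepes pH 7.4, 150 mM NaCl, 3.4 mM EDTA; 60 min, 25° C; anti-His acceptor/streptavidin donor ALPHA beads; decreased signal = blocked binding; 4-parameter IC50.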

Assay [2] addresses T1, PD-1/PD-L1 interaction (Homo sapiens, UniProt Q9NZQ7).
T1 construct: expressed in transfected cells; host or cells: CHO cells (aAPC-PD-L1) co-cultured with Jurkat cells overexpressing PD-1 and an NFAT-luciferase reporter
Kind of assay: PD-1/PD-L1 NFAT reporter co-culture assay. The assay is classed as cell-based. As to conditions: Jurkat PD-1 NFAT-luciferase cells co-cultured with aAPC-PD-L1 CHO cells, 6 hrs at 37° C.; read-out: EC50 NFAT Luciferase. The procedure, abridged:
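CHO aAPC-PD-L1 seeded overnight; PD-1/NFAT-luc Jurkat + cpd in RPMI 1640, 2% FBS added at once; 6 h, 37 °C; ONE-Glo luminescence; EC50, 4-parameter fit.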

Each structure is given as a SMILES string.

T1 sequence (Q9NZQ7 19-290): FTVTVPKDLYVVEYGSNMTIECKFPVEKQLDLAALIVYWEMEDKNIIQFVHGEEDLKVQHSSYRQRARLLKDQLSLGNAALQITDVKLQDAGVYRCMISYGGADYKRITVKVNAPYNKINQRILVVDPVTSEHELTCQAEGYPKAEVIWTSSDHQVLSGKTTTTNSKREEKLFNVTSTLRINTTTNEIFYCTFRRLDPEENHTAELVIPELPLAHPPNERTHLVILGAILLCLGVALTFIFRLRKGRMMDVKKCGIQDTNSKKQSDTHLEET
PD-1/PD-L1, sequence (Q9NZQ7 19-238 limits assumed): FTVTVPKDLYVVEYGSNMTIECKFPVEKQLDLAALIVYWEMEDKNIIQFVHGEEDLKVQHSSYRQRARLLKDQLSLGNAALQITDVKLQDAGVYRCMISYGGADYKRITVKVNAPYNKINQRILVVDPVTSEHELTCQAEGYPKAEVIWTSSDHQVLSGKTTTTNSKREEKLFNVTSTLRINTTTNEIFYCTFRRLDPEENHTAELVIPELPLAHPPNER

Regarding `COc1nc(/C=C/c2cccc(-c3cccc(/C=C/c4nc(OC)c(CNC[C@@H](O)CC(=O)O)cc4Cl)c3C)c2C)c(Cl)cc1CNC[C@@H](O)CC(=O)O` [Example 239, (3S,3′S)-4,4′-(((((1E,1′E)-(2,2′-dimethyl-[1,1′-biphenyl]-3,3′-diyl)bis(ethene-2,1-diyl))bis(5-chloro-2-methoxypyridine-6,3-diyl))bis(methylene))bis(azanediyl))bis(3-hydroxybutanoic acid)], in assay [1], the IC50 (usually the concentration that inhibits the measured activity by half) was determined as 8.1 nM. Besides, in assay [2], the EC50 (as a rule, the concentration needed to bring the measured effect to its halfway point) came out at 1120 nM.
The corresponding values for `Cc1cc(OCc2cccc(-c3cccc(COc4cc(C)c(CNC[C@@H](O)CC(=O)O)c(OCc5cncc(C#N)c5)c4)c3C)c2C)cc(OCc2cncc(C#N)c2)c1CNC[C@@H](O)CC(=O)O` [Example 246, (3S,3′S)-4,4′-((((((2,2′-dimethyl-[1,1′-biphenyl]-3,3′-diyl)bis(methylene))bis(oxy))bis(2-((5-cyanopyridin-3-yl)methoxy)-6-methyl-4,1-phenylene))bis(methylene))bis(azanediyl))bis(3-hydroxybutanoic acid)] are 1 nM and 1200 nM.
The corresponding values for `CC(=O)NCCNCc1ccc(OCc2cccc(-c3cccc(COc4ccc(CNCCNC(C)=O)c(-c5cncc(C#N)c5)c4)c3C)c2C)cc1-c1cncc(C#N)c1` [Example 250, N,N′-(((((((2,2′-dimethyl-[1,1′-biphenyl]-3,3′-diyl)bis(methylene))bis(oxy))bis(2-(5-cyanopyridin-3-yl)-4,1-phenylene))bis(methylene))bis(azanediyl))bis(ethane-2,1-diyl))diacetamide] are 63.6 nM and 7490 nM.
On the same counts, the results for `Cc1c(COc2ccc(CNC[C@@H](O)CC(=O)O)c(OCc3cncc(C#N)c3)n2)cccc1-c1cccc(COc2ccc(CNC[C@@H](O)CC(=O)O)c(=O)n2Cc2cncc(C#N)c2)c1C` [Example 251, (S)-4-(((6-((3′-(((5-((((S)-3-carboxy-2-hydroxypropyl)amino)methyl)-1-((5-cyanopyridin-3-yl)methyl)-6-oxo-1,6-dihydropyridin-2-yl)oxy)methyl)-2,2′-dimethyl-[1,1′-biphenyl]-3-yl)methoxy)-2-((5-cyanopyridin-3-yl)methoxy)pyridin-3-yl)methyl)amino)-3-hydroxybutanoic acid] are 2 nM and 25900 nM.
In the case of `Cc1c(COc2nc(OCc3cncc(C#N)c3)c(CNC[C@H](O)CC(=O)O)cc2Br)cccc1-c1cccc(COc2nc(OCc3cncc(C#N)c3)c(CNC[C@H](O)CC(=O)O)cc2Br)c1C` [Example 252, (3R,3′R)-4,4′-((((((2,2′-dimethyl-[1,1′-biphenyl]-3,3′-diyl)bis(methylene))bis(oxy))bis(5-bromo-2-((5-cyanopyridin-3-yl)methoxy)pyridine-6,3-diyl))bis(methylene))bis(azanediyl))bis(3-hydroxybutanoic acid)], in assay [1], the IC50 worked out at 0.3 nM. The EC50 in assay [2] was 333 nM.
On the same counts, the results for `COc1ccc(COc2nc(OCc3cccc(-c4cccc(COc5nc(OCc6ccc(OC)nc6)c(CNC[C@@H](O)CC(=O)O)cc5Br)c4C)c3C)c(Br)cc2CNC[C@@H](O)CC(=O)O)cn1` [Example 253, (3S,3′S)-4,4′-((((((2,2′-dimethyl-[1,1′-biphenyl]-3,3′-diyl)bis(methylene))bis(oxy))bis(5-bromo-2-((6-methoxypyridin-3-yl)methoxy)pyridine-6,3-diyl))bis(methylene))bis(azanediyl))bis(3-hydroxybutanoic acid)] are 4.6 nM and 304 nM.
On the same counts, the results for `Cc1c(COc2cc(OCc3cncc(C#N)c3)c(CNCCO)cc2Br)cccc1-c1cccc(COc2cc(OCc3cncc(C#N)c3)c(CNCCO)cc2Br)c1C` [Example 254, 5,5′-((((((2,2′-dimethyl-[1,1′-biphenyl]-3,3′-diyl)bis(methylene))bis(oxy))bis(4-bromo-6-(((2-hydroxyethyl)amino)methyl)-3,1-phenylene))bis(oxy))bis(methylene))dinicotinonitrile] are 20.8 nM and 689 nM.
The corresponding values for `Cc1c(COc2cc(OCc3cncc(C#N)c3)c(CNC[C@@H](O)CO)cc2Br)cccc1-c1cccc(COc2cc(OCc3cncc(C#N)c3)c(CNC[C@@H](O)CO)cc2Br)c1C` [Example 257, 5,5′-((((((2,2′-dimethyl-[1,1′-biphenyl]-3,3′-diyl)bis(methylene))bis(oxy))bis(4-bromo-6-((((R)-2,3-dihydroxypropyl)amino)methyl)-3,1-phenylene))bis(oxy))bis(methylene))dinicotinonitrile] are 24 nM and 657 nM.
As to `Cc1c(COc2cc(OCc3cncc(C#N)c3)c(CN3CC[C@@H]3CO)cc2Br)cccc1-c1cccc(COc2cc(OCc3cncc(C#N)c3)c(CN3CC[C@@H]3CO)cc2Br)c1C` [Example 258, 5,5′-((((((2,2′-dimethyl-[1,1′-biphenyl]-3,3′-diyl)bis(methylene))bis(oxy))bis(4-bromo-6-(((R)-2-(hydroxymethyl)azetidin-1-yl)methyl)-3,1-phenylene))bis(oxy))bis(methylene))dinicotinonitrile], in assay [1], the IC50 amounted to 6.3 nM. Moreover, in assay [2], the EC50 came to 419 nM.
The corresponding values for `Cc1c(COc2cc(OCc3cncc(C#N)c3)c(CNC[C@H](O)CO)cc2Br)cccc1-c1cccc(COc2cc(OCc3cncc(C#N)c3)c(CNC[C@H](O)CO)cc2Br)c1C` [Example 259, 5,5′-((((((2,2′-dimethyl-[1,1′-biphenyl]-3,3′-diyl)bis(methylene))bis(oxy))bis(4-bromo-6-((((S)-2,3-dihydroxypropyl)amino)methyl)-3,1-phenylene))bis(oxy))bis(methylene))dinicotinonitrile] are 22.7 nM and 511 nM.
Regarding `Cc1c(COc2cc(OCc3cncc(C#N)c3)c(CNCc3ncc[nH]3)cc2Br)cccc1-c1cccc(COc2cc(OCc3cncc(C#N)c3)c(CNCc3ncc[nH]3)cc2Br)c1C` [Example 261, 5,5′-((((((2,2′-dimethyl-[1,1′-biphenyl]-3,3′-diyl)bis(methylene))bis(oxy))bis(6-((((1H-imidazol-2-yl)methyl)amino)methyl)-4-bromo-3,1-phenylene))bis(oxy))bis(methylene))dinicotinonitrile], the IC50 in assay [1] was 120 nM. The EC50 in assay [2] came to 3170 nM.
The corresponding values for `Cc1c(COc2cc(OCc3nccs3)c(CNC[C@@H](O)CC(=O)O)cc2Cl)cccc1-c1cccc(COc2cc(OCc3nccs3)c(CNC[C@@H](O)CC(=O)O)cc2Cl)c1C` [Example 262, (3S,3′S)-4,4′-((((((2,2′-dimethyl-[1,1′-biphenyl]-3,3′-diyl)bis(methylene))bis(oxy))bis(5-chloro-2-(thiazol-2-ylmethoxy)-4,1-phenylene))bis(methylene))bis(azanediyl))bis(3-hydroxybutanoic acid)] are 1.5 nM and 8620 nM.
On the same counts, the results for `COc1nc(OCc2cccc(-c3cccc(COc4nc(OC)c(CNC[C@@H](O)CC(=O)O)cc4S(C)(=O)=O)c3C)c2C)c(S(C)(=O)=O)cc1CNC[C@@H](O)CC(=O)O` [Example 263, (3S,3′S)-4,4′-((((((2,2′-dimethyl-[1,1′-biphenyl]-3,3′-diyl)bis(methylene))bis(oxy))bis(2-methoxy-5-(methylsulfonyl)pyridine-6,3-diyl))bis(methylene))bis(azanediyl))bis(3-hydroxybutanoic acid)] are 1.8 nM and 36400 nM.
On the same counts, the results for `Cc1c(COc2ccc(CNC[C@@H](O)CC(=O)O)c(OCc3cc(C#N)ccc3F)c2)cccc1-c1cccc(COc2ccc(CNC[C@@H](O)CC(=O)O)c(OCc3cc(C#N)ccc3F)c2)c1C` [Example 265, (3S,3′S)-4,4′-((((((2,2′-dimethyl-[1,1′-biphenyl]-3,3′-diyl)bis(methylene))bis(oxy))bis(2-((5-cyano-2-fluorobenzyl)oxy)-4,1-phenylene))bis(methylene))bis(azanediyl))bis(3-hydroxybutanoic acid)] are 3.2 nM and 7060 nM.
Turning to `N#Cc1cncc(COc2cc(C(=O)N3CCc4c(-c5cccc6c5CCN6C(=O)c5ccc(CNC[C@@H](O)CC(=O)O)c(OCc6cncc(C#N)c6)c5)cccc43)ccc2CNC[C@@H](O)CC(=O)O)c1` [Example 267, (3S,3′S)-4,4′-(((([4,4′-biindoline]-1,1′-dicarbonyl)bis(2-((5-cyanopyridin-3-yl)methoxy)-4,1-phenylene))bis(methylene))bis(azanediyl))bis(3-hydroxybutanoic acid)], in assay [1], the IC50 came to 1.1 nM. The EC50 in assay [2] amounted to 8540 nM.
For the molecule `Cc1c(COc2nc(OCc3ccc(N4CCOCC4)nc3)c(CNC[C@@H](O)CC(=O)O)cc2Br)cccc1-c1cccc(COc2nc(OCc3ccc(N4CCOCC4)nc3)c(CNC[C@@H](O)CC(=O)O)cc2Br)c1C` [Example 269, (3S,3′S)-4,4′-((((((2,2′-dimethyl-[1,1′-biphenyl]-3,3′-diyl)bis(methylene))bis(oxy))bis(5-bromo-2-((6-morpholinopyridin-3-yl)methoxy)pyridine-6,3-diyl))bis(methylene))bis(azanediyl))bis(3-hydroxybutanoic acid)], the IC50 in assay [1] worked out at 12.3 nM. The EC50 in assay [2] is at least 50000 nM.
